Test system: GDNF mRNA in cultured astroglia
Experiment: Quantification of GDNF mRNA by RT-PCR in cultured astroglia
Type: cell-based, Wistar rat
Conditions: cultured rat astroglia
Description: Astroglia was prepared from the brain of a 1 to 2-day-old Wistar rat. It was inoculated to a 75 cm^2 culture flask, and incubated in Eagle's minimum essential medium supplemented with 10% fetal bovine serum for 10 to 14 days. Then, it was shaken overnight at 250 rpm, and microglia and oligodendroglia on the astroglia monolayer were removed. Astroglia was dispersed in 0.25% trypsin (1:400, Invitrogen), and inoculated to a 6-well plate. It was further incubated for 7 to 10 days, and confluent cells were used for the experiment.
The cultured astroglia prepared by the above-mentioned method was incubated in serum-free Eagle's minimum essential medium for 48 hours. The total RNA was prepared by AGPC (Acid Guanidinium-Phenol-Chloroform) method (Chomczynski P., and Sacchi N., Anal. Biochem. 162, 156-159 (1987)). […] The fluorescence intensity of the PCR product was imaged by Fluoro Imager (Molecular Dynamics), and fluorescence bands were quantified by NIH Image. The amount of the PCR product of the eurotrophic factor was standardized using the amount of the β-actin PCR product of cDNA, and the amount of relative mRNA was determined. The activity of N-(4-acetyl-1-piperazinyl)-p-fluorobenzamide monohydrate (hereinafter to be also referred to as a test drug.) on neurotrophic factor production was evaluated by a Tukey-Kramer assay. […]

CC(=O)N1CCN(NC(=O)c2ccc(F)cc2)CC1.O [test drug, N-(4-acetyl-1-piperazinyl)-p-fluorobenzamide monohydrate]
amount of GDNF mRNA (relative mRNA amount standardized using the amount of the β-actin PCR product) (serum-free medium, from 3 hours after the treatment with the test drug, RT-PCR, Tukey-Kramer): significant increase | time of peak of GDNF mRNA amount after treatment (time-course after treatment with the test drug (FIG. 1)): 6 h
